Assays:
Assay type in all cases: functional
[1] = tested on: Neisseria gonorrhoeae; assay: Antimicrobial activity against Neisseria gonorrhoeae isolate NG9806 expressing chromosomal cefixime-resistant penA gene by agar dilution method
[2] = tested on: Neisseria gonorrhoeae; assay: Antimicrobial activity against Neisseria gonorrhoeae isolate NG9811 expressing chromosomal cefixime-resistant penA gene by agar dilution method
[3] = tested on: Neisseria gonorrhoeae; assay: Antimicrobial activity against Neisseria gonorrhoeae isolate NG9812 expressing chromosomal cefixime-resistant penA gene by agar dilution method
[4] = tested on: Neisseria gonorrhoeae; assay: Antimicrobial activity against Neisseria gonorrhoeae isolate NG9911 expressing chromosomal cefixime-resistant penA gene by agar dilution method
[5] = tested on: Neisseria gonorrhoeae; assay: Antimicrobial activity against Neisseria gonorrhoeae isolate NG9912 expressing chromosomal cefixime-resistant penA gene by agar dilution method
[6] = tested on: Neisseria gonorrhoeae; assay: Antimicrobial activity against Neisseria gonorrhoeae isolate NG9913 expressing chromosomal cefixime-resistant penA gene by agar dilution method
[7] = tested on: Neisseria gonorrhoeae; assay: Antimicrobial activity against Neisseria gonorrhoeae isolate NG9914 expressing chromosomal cefixime-resistant penA gene by agar dilution method
[8] = tested on: Neisseria gonorrhoeae; assay: Antimicrobial activity against Neisseria gonorrhoeae isolate NG0002 expressing chromosomal cefixime-resistant penA gene by agar dilution method
[9] = tested on: Neisseria gonorrhoeae; assay: Antimicrobial activity against Neisseria gonorrhoeae isolate NG0003 expressing chromosomal cefixime-resistant penA gene by agar dilution method
[10] = tested on: Neisseria gonorrhoeae; assay: Antimicrobial activity against Neisseria gonorrhoeae isolate NG0008 expressing chromosomal cefixime-resistant penA gene by agar dilution method
[11] = tested on: Neisseria gonorrhoeae; assay: Antimicrobial activity against Neisseria gonorrhoeae isolate NG0109 expressing chromosomal cefixime-resistant penA gene by agar dilution method
[12] = tested on: Neisseria gonorrhoeae; assay: Antimicrobial activity against Neisseria gonorrhoeae isolate NG0110 expressing chromosomal cefixime-resistant penA gene by agar dilution method
[13] = tested on: Neisseria gonorrhoeae; assay: Antimicrobial activity against Neisseria gonorrhoeae isolate NG0111 expressing chromosomal cefixime-resistant penA gene by agar dilution method
[14] = tested on: Neisseria gonorrhoeae; assay: Antimicrobial activity against Neisseria gonorrhoeae isolate NG0201 expressing chromosomal cefixime-resistant penA gene by agar dilution method
[15] = tested on: Neisseria gonorrhoeae; assay: Antimicrobial activity against Neisseria gonorrhoeae isolate NG0204 expressing chromosomal cefixime-resistant penA gene by agar dilution method
[16] = tested on: Neisseria gonorrhoeae; assay: Antimicrobial activity against Neisseria gonorrhoeae isolate NG0205 expressing chromosomal cefixime-resistant penA gene by agar dilution method
[17] = tested on: Neisseria gonorrhoeae; assay: Antimicrobial activity against Neisseria gonorrhoeae isolate NG0206 expressing chromosomal cefixime-resistant penA gene by agar dilution method
[18] = tested on: Neisseria gonorrhoeae; assay: Antimicrobial activity against Neisseria gonorrhoeae isolate NG0207 expressing chromosomal cefixime-resistant penA gene by agar dilution method
[19] = tested on: Neisseria gonorrhoeae; assay: Antimicrobial activity against Neisseria gonorrhoeae isolate NG0303 expressing chromosomal cefixime-resistant penA gene by agar dilution method
[20] = tested on: Neisseria gonorrhoeae; assay: Antimicrobial activity against Neisseria gonorrhoeae isolate NG0304 expressing chromosomal cefixime-resistant penA gene by agar dilution method
[21] = tested on: Neisseria gonorrhoeae; assay: Antimicrobial activity against Neisseria gonorrhoeae isolate NG0311 expressing chromosomal cefixime-resistant penA gene by agar dilution method
[22] = tested on: Neisseria gonorrhoeae; assay: Antimicrobial activity against Neisseria gonorrhoeae isolate NG0312 expressing chromosomal cefixime-resistant penA gene by agar dilution method
[23] = tested on: Neisseria gonorrhoeae; assay: Antimicrobial activity against Neisseria gonorrhoeae isolate NG0401 expressing chromosomal cefixime-resistant penA gene by agar dilution method
[24] = tested on: Neisseria gonorrhoeae; assay: Antimicrobial activity against Neisseria gonorrhoeae isolate NG0404 expressing chromosomal cefixime-resistant penA gene by agar dilution method
[25] = tested on: Neisseria gonorrhoeae; assay: Antimicrobial activity against Neisseria gonorrhoeae isolate NG0410 expressing chromosomal cefixime-resistant penA gene by agar dilution method
[26] = tested on: Neisseria gonorrhoeae; assay: Antimicrobial activity against Neisseria gonorrhoeae isolate NG0503 expressing chromosomal cefixime-resistant penA gene by agar dilution method
[27] = tested on: Neisseria gonorrhoeae; assay: Antimicrobial activity against Neisseria gonorrhoeae isolate NG0508 expressing chromosomal cefixime-resistant penA gene by agar dilution method
[28] = tested on: Neisseria gonorrhoeae; assay: Antimicrobial activity against Neisseria gonorrhoeae isolate NG0509 expressing chromosomal cefixime-resistant penA gene by agar dilution method
[29] = tested on: Neisseria gonorrhoeae; assay: Antimicrobial activity against Neisseria gonorrhoeae isolate NG0511 expressing chromosomal cefixime-resistant penA gene by agar dilution method
[30] = tested on: Neisseria gonorrhoeae; assay: Antimicrobial activity against Neisseria gonorrhoeae isolate NG0512 expressing chromosomal cefixime-resistant penA gene by agar dilution method
[31] = tested on: Neisseria gonorrhoeae; assay: Antimicrobial activity against Neisseria gonorrhoeae isolate NG0513 expressing chromosomal cefixime-resistant penA gene by agar dilution method
[32] = tested on: Neisseria gonorrhoeae; assay: Antimicrobial activity against Neisseria gonorrhoeae isolate NG0514 expressing chromosomal cefixime-resistant penA gene by agar dilution method
[33] = tested on: Neisseria gonorrhoeae; assay: Antimicrobial activity against Neisseria gonorrhoeae isolate NG0202 expressing chromosomal cefixime-resistant penA gene by agar dilution method
[34] = tested on: Neisseria gonorrhoeae; assay: Antimicrobial activity against Neisseria gonorrhoeae isolate NG0402 expressing chromosomal cefixime-resistant penA gene by agar dilution method
[35] = tested on: Neisseria gonorrhoeae; assay: Antimicrobial activity against Neisseria gonorrhoeae isolate NGON03-079 expressing chromosomal cefixime-resistant penA gene by agar dilution method
[36] = tested on: Neisseria gonorrhoeae; assay: Antimicrobial activity against Neisseria gonorrhoeae isolate NGON03-092 expressing chromosomal cefixime-resistant penA gene by agar dilution method
[37] = tested on: Neisseria gonorrhoeae; assay: Antimicrobial activity against Neisseria gonorrhoeae isolate NGON03-115 expressing chromosomal cefixime-resistant penA gene by agar dilution method
[38] = tested on: Neisseria gonorrhoeae; assay: Antimicrobial activity against Neisseria gonorrhoeae isolate NGON07-002 expressing chromosomal cefixime-resistant penA gene by agar dilution method
[39] = tested on: Neisseria gonorrhoeae; assay: Antimicrobial activity against Neisseria gonorrhoeae isolate NG0202 expressing chromosomal cefixime-resistant penA gene at 0.031 ug/ml after 16 hrs
[40] = tested on: Neisseria gonorrhoeae; assay: Antimicrobial activity against Neisseria gonorrhoeae isolate NG0003 expressing chromosomal cefixime-resistant penA gene at […] after 16 hrs
[41] = tested on: Neisseria gonorrhoeae; assay: Antimicrobial activity against Neisseria gonorrhoeae isolate NG0202 expressing chromosomal cefixime-resistant penA gene at 2 ug/ml after 16 hrs
[42] = tested on: Neisseria gonorrhoeae; assay: Antimicrobial activity against Neisseria gonorrhoeae isolate NG0003 expressing chromosomal cefixime-resistant penA gene at 2 ug/ml after 16 hrs

C=CC1=C(C(=O)O)N2C(=O)[C@@H](NC(=O)/C(=N\OCC(=O)O)c3csc(N)n3)[C@H]2SC1 [CEFIXIME]
<10 mL⁻¹: CFU [39]
1.01 ×10⁸ /ml: CFU [40]
0.031 µg/mL: MIC [34]
0.5 µg/mL: MIC [21] | MIC [22] | MIC [23] | MIC [24] | MIC [25] | MIC [31] | MIC [35] | MIC [37]
0.25 µg/mL: MIC [1] | MIC [2] | MIC [3] | MIC [4] | MIC [5] | MIC [6] | MIC [7] | MIC [8] | MIC [9] | MIC [10] | MIC [11] | MIC [12] | MIC [13] | MIC [14] | MIC [15] | MIC [16] | MIC [17] | MIC [18] | MIC [19] | MIC [26] | MIC [27] | MIC [28] | MIC [29] | MIC [30] | MIC [32] | MIC [36] | MIC [38]
0.004 µg/mL: MIC [33]
1 µg/mL: MIC [20]

O=C(O)c1cn(C2CC2)c2cc(N3CCNCC3)c(F)cc2c1=O [CIPROFLOXACIN]
0.71 ×10⁸ /ml: CFU [41]
<10 mL⁻¹: CFU [42]
0.031 µg/mL: MIC [9]
8 µg/mL: MIC [33]

— ChEMBL document CHEMBL1240381, “Spread of a chromosomal cefixime-resistant penA gene among different Neisseria gonorrhoeae lineages” (2010)
